Drawing on PMC6151589, “Identification of Optically Active Pyrimidine Derivatives as Selective 5-HT2C Modulators” (Molecules : A Journal of Synthetic Chemistry and Natural …, 2017), this text covers inhibition and Ki for 5 molecules.

Assay in all cases: biochemical
Common to all, as to set-up: species or system HEK293 or CHO; competitive radioligand binding on crude membranes, filtration and scintillation counting

One assay concerns the target T1, 5-HT1B (Homo sapiens, UniProt P28222).
T1 construct: gene HTR1B; human recombinant receptor, crude membranes of HEK293 or CHO cells
The procedure: (§1) Eleven dilutions (5 × assay concentration) of the test and reference compounds (Table S1) were prepared in standard binding buffer (50 mM tris(hydroxymethyl)-aminomethane-HCl (Tris-HCl), 10 mM MgCl2, 1 mM ethylenediaminetetraacetate (EDTA), pH 7.4) by serial dilution: 0.05 nM, 0.5 nM, 1.5 nM, 5 nM, 15 nM, 50 nM, 150 nM, 500 nM, 1.5 μM, 5 μM, and 50 μM. The radioligand (Table S3) was diluted to five times the assay concentration in standard binding buffer. Aliquots ([…]) of the radioligand were dispensed into the wells of a 96-well plate containing […] of standard binding buffer. Triplicate aliquots ([…]) of the test and reference compound dilutions were then added. Finally, crude membrane fractions ([…]) of cells (HEK293 or CHO) expressing human recombinant receptors were dispensed into each well. A total of […] of the reaction mixtures was incubated at room temperature and shielded from light for 1.5 h, and was then harvested by rapid filtration onto Whatman GF/B glass fiber filters presoaked with 0.3% polyethyleneimine, by using a 96-well Brandel harvester (Gaithersburg, MD, USA). Four rapid washes were performed with chilled standard binding buffer (500 mL) to decrease nonspecific binding. Filters were placed in 6 mL scintillation tubes and allowed to dry overnight. The next day, 4-mL of EcoScint scintillation cocktail (National Diagnostics) was added to each tube. The tubes were capped, labeled, and counted by […] scintillation counting. The filter mats were dried, and the scintillant was melted onto the filters, then the radioactivity retained on the filters was counted in a Microbeta scintillation counter. The IC50 values were obtained by using the Prism 4.0 program (GraphPad Software, La Jolla, CA, USA) and were converted into Ki values. Each compound was tested at least in triplicate. With each enantiomer (R)- or (S)-5d and 5e in hand, the optically active pyrimidine derivatives 4d–4e were synthesized following the same reaction sequences (Scheme 3). Finally, compounds 4d and 4e were assessed for their binding affinity to 5-HT2 receptor subtypes by radioligand binding assays. […] A further evaluation of these compounds for other 5-HT receptor subtypes was also performed and is provided in the supplementary data (Table S2). […] Considering the potencies and selectivities of 4, we can conclude that (R,R)-4e would be a viable candidate for a selective 5-HT2C modulator.

The next assay concerns the target T2, 5-HT7 (Homo sapiens, UniProt P34969).
T2 construct: gene HTR7; human recombinant receptor, crude membranes of HEK293 or CHO cells
The settings on record: for Ki: read-out: Ki (nM), 7. The procedure: as §1

A further assay addresses T3, 5-HT6 (Homo sapiens, UniProt P50406).
T3 construct: gene HTR6; human recombinant receptor, crude membranes of HEK293 or CHO cells
To be noted: for Ki: read-out: Ki (nM), 6. The procedure: as §1

The next assay addresses T4, 5-HT1E (Homo sapiens, UniProt P28566).
T4 construct: gene HTR1E; human recombinant receptor, crude membranes of HEK293 or CHO cells
The settings on record: for Ki: read-out: Ki (nM), 1E. The procedure:
as §1

The next assay has as its target T5, 5-HT3 (Homo sapiens, UniProt P46098).
T5 construct: gene HTR3A; human recombinant receptor, crude membranes of HEK293 or CHO cells
T5 sequence (P46098 1-478): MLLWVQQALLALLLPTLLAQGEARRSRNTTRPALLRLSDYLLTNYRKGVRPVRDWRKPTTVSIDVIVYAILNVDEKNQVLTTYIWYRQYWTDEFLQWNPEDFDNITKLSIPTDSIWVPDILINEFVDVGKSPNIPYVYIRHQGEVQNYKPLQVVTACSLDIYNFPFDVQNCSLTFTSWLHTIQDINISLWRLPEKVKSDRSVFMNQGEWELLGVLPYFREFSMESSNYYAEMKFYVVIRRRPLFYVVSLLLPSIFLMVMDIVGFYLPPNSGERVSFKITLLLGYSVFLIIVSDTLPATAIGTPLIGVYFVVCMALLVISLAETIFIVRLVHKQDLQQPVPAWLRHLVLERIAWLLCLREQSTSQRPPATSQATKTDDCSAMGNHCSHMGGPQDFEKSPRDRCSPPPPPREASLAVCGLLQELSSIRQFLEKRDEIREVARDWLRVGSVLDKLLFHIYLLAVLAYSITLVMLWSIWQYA
To be noted: for Ki: read-out: Ki (nM), 3. The method, then: as §1

For another assay, the target named is T6, 5-HT1A (Homo sapiens, UniProt P08908).
T6 construct: gene HTR1A; human recombinant receptor, crude membranes of HEK293 or CHO cells
T6 sequence (P08908 1-422): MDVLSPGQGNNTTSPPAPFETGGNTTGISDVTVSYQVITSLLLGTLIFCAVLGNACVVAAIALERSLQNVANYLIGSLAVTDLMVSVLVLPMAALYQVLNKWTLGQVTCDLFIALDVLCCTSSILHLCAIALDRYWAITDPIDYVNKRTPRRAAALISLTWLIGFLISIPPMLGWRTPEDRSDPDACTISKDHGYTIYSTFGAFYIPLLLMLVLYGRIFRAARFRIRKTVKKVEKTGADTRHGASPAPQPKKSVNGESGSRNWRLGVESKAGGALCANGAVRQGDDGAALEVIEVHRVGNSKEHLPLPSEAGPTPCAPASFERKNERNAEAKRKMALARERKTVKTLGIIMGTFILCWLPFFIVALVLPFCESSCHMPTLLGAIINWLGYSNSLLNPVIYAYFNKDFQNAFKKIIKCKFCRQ
To be noted: for Ki: read-out: Ki (nM), 1A. The method, then: as §1

For the next assay, the target named is T7, 5-HT2B (Homo sapiens, UniProt P41595).
T7 construct: gene HTR2B; human recombinant receptor; crude membrane fractions of transfected HEK293 or CHO cells
The procedure: as §1

T4 sequence (P28566 whole entry): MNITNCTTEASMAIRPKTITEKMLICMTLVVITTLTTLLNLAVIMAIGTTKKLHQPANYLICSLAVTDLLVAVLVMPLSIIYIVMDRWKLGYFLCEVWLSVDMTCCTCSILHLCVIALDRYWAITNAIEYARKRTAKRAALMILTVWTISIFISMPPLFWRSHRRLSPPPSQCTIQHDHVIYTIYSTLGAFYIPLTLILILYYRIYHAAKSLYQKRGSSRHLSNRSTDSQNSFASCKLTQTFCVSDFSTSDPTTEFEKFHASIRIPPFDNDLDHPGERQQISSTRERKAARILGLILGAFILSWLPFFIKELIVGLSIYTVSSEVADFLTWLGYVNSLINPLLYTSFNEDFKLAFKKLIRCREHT
T1 sequence (P28222 whole entry): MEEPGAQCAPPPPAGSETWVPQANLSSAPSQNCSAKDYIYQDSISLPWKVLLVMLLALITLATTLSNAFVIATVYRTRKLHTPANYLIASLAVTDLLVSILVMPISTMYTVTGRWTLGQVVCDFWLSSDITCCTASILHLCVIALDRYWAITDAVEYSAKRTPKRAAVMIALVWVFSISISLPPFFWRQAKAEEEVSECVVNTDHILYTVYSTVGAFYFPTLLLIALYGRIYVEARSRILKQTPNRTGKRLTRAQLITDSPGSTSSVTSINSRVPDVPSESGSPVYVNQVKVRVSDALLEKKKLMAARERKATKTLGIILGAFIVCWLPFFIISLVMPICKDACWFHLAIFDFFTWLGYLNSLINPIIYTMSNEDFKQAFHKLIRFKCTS
T3 sequence (P50406 whole entry): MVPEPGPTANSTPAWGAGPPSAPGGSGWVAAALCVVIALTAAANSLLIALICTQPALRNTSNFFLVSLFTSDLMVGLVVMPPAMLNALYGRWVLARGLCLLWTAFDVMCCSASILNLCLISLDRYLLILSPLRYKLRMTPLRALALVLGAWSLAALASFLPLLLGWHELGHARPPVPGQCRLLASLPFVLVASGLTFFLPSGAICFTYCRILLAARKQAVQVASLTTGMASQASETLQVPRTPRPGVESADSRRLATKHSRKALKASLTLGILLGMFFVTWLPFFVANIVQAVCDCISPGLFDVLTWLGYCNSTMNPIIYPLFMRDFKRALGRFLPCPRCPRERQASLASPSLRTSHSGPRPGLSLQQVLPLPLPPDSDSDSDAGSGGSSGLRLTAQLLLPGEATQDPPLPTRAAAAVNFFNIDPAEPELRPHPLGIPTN
T7 sequence (P41595 whole entry): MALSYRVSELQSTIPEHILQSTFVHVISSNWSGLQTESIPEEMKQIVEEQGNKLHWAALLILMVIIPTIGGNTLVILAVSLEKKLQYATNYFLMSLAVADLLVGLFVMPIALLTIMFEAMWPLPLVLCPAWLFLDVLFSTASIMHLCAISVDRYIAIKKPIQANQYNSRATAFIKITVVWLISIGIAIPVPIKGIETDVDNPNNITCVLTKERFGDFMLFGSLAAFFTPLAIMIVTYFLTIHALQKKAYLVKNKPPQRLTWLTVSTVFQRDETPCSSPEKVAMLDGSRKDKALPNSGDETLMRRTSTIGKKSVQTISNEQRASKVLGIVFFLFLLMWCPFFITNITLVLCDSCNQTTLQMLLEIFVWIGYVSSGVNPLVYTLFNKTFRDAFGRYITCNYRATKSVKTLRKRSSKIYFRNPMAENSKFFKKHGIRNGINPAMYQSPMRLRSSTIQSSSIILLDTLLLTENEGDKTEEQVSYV
T2 sequence (P34969 whole entry): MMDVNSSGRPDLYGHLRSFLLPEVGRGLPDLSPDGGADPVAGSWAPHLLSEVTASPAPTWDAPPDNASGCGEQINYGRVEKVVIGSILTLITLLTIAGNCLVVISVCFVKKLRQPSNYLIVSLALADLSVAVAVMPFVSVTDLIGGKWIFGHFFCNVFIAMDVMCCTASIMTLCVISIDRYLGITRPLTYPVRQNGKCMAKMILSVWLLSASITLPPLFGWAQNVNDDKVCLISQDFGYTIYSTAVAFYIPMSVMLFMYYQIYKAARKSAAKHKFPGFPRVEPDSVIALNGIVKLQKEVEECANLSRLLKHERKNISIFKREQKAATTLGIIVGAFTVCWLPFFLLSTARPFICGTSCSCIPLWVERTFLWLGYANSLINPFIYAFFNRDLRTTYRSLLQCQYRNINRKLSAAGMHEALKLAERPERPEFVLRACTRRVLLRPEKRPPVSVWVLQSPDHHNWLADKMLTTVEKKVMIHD

As for `C[C@H](Oc1nc(N2CCNC[C@H]2C)ncc1F)c1cccc(F)c1` [(S,R)-4d, 5-Fluoro-4-((S)-1-(3-fluorophenyl)ethoxy)-2-((R)-2-methylpiperazin-1-yl)pyrimidine], the inhibition at 10 µM was found to be 3% at 5-HT1B; 56.9% at 5-HT7; 91.6% at 5-HT6; 29.5% at 5-HT1E; 78.6% on 5-HT3; 67.7% at 5-HT1A. The Ki at 5-HT7 was determined as 766 nM; at 5-HT6, 70 nM; on 5-HT3, 501 nM; at 5-HT1A, 806 nM.
In the case of `C[C@@H]1CNCCN1c1ncc(F)c(O[C@H](C)c2cccc(F)c2)n1` [(R,R)-4d, 5-Fluoro-4-((R)-1-(3-fluorophenyl)ethoxy)-2-((R)-2-methylpiperazin-1-yl)pyrimidine], the inhibition at 10 µM at 5-HT1B came to 27.7%; at 5-HT2B, 100%; at 5-HT7, 84.4%; on 5-HT6 it was 95.7%; on 5-HT1E, 67.5%; at 5-HT3, 89.4%. In addition, on 5-HT1A, at 10 µM the inhibition was 78%. For the same molecule, the Ki at 5-HT7 is 444 nM; on 5-HT6, 57 nM; on 5-HT1E it was 1160 nM; at 5-HT3, 242 nM; on 5-HT1A it was 98 nM.
For `C[C@H](Oc1nc(N2CCNC[C@H]2C)ncc1F)c1ccc(F)cc1` [(S,R)-4e, 5-Fluoro-4-((S)-1-(4-fluorophenyl)ethoxy)-2-((R)-2-methylpiperazin-1-yl)pyrimidine], the inhibition at 10 µM on 5-HT1B stood at 17.9%; on 5-HT2B it was 95.3%; at 5-HT7, 64.8%; on 5-HT6, 86.1%; at 5-HT3 it was 70.1%; on 5-HT1A, 67.3%. The Ki on 5-HT7 is 946 nM; on 5-HT6, 116 nM; on 5-HT3, 1000 nM; at 5-HT1A it was 1120 nM.
Take `C[C@H](Cc1cccc(F)c1)Oc1nc(N2CCNC[C@H]2C)ncc1F` [compound 3, pyrimidine analogue 3]: the inhibition at 10 µM at 5-HT1B was 55.1%; on 5-HT2B it was 97.4%; at 5-HT7, 94.7%; at 5-HT6, 93.8%; on 5-HT1E, 65.6%; on 5-HT3 it was 75%. This molecule had an inhibition at 10 µM on 5-HT1A of 89%. For the same molecule, the Ki was 1780 nM at 5-HT1B (read-out: Ki (nM), 1B); 84 nM on 5-HT7; 43 nM at 5-HT6; 1160 nM at 5-HT1E; 241 nM on 5-HT3; 353 nM at 5-HT1A.
For the molecule `C[C@@H]1CNCCN1c1ncc(F)c(O[C@H](C)c2ccc(F)cc2)n1` [(R,R)-4e, 5-Fluoro-4-((R)-1-(4-fluorophenyl)ethoxy)-2-((R)-2-methylpiperazin-1-yl)pyrimidine], the inhibition at 10 µM at 5-HT1B was 6.4%; on 5-HT2B it was 99.6%; at 5-HT7, 87.6%; at 5-HT6 it was 97.4%; on 5-HT1E, 42.7%; on 5-HT3, 87.8%. At 5-HT1A, this molecule displayed an inhibition at 10 µM of 10%. Also, the values for the Ki on 5-HT7, at 5-HT6 and on 5-HT3 were 236 nM, 17 nM and 242 nM, respectively.

A word on the inhibition: it is how much of the control response was suppressed. Read a high inhibition as a response far below the control. Broadly, the Ki is a dissociation constant, usually derived from enzyme kinetics or from competition with a known ligand.
